Values joined by “and” are separate entries in the source; they are usually repeats but may differ in a detail not shown here. Equal entries are not always repeated. Inconclusive results and toxic doses are left out. Rule for the calls: active = survival T/C of 150% or more; inactive = T/C below 125% in these data.
System: CD2F1 mice, L1210 leukemia ip, survival T/C
Assay: NCI In Vivo Anticancer Drug Screen. Data for tumor model L1210 Leukemia (intraperitoneal) in CD2F1 (CDF1) mice
Conditions: endpoint: mean survival time, higher = longer survival
Outline: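 Read-out first: treated-group measurement over vehicle-control measurement, expressed as a ratio. Animals bore a transplanted tumor line and were dosed with compound or vehicle.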

[1] = dose: 50.0 mg/kg/injection, schedule: Q01DX009 (ip), vehicle: saline with Tween-80
[2] = dose: 100.0 mg/kg/injection, schedule: Q01DX009 (ip), vehicle: saline with Tween-80
[3] = dose: 100.0 mg/kg/injection, schedule: Q04DX003 (ip), vehicle: saline with Tween-80
[4] = dose: 200.0 mg/kg/injection, schedule: Q04DX003 (ip), vehicle: saline with Tween-80
[5] = dose: 100.0 mg/kg/injection, schedule: Q01DX001 (ip), vehicle: saline with Tween-80
[6] = dose: 200.0 mg/kg/injection, schedule: Q01DX001 (ip), vehicle: saline with Tween-80
[7] = dose: 200.0 mg/kg/injection, schedule: Q01DX009 (ip), vehicle: saline with Tween-80
[8] = dose: 400.0 mg/kg/injection, schedule: Q01DX001 (ip), vehicle: saline with Tween-80
[9] = dose: 400.0 mg/kg/injection, schedule: Q01DX009 (ip), vehicle: saline with Tween-80
[10] = dose: 25.0 mg/kg/injection, schedule: Q04DX003 (ip), vehicle: saline with Tween-80
[11] = dose: 50.0 mg/kg/injection, schedule: Q04DX003 (ip), vehicle: saline with Tween-80

Measured: T/C

C=C1C(=O)OC2CC3(C)CCCC(C)C34OC4C12 (centres undefined)
inactive: dose: 50.0 mg/kg/injection, schedule: Q04DX002 (ip), vehicle: saline 90 % of control | dose: 100.0 mg/kg/injection, schedule: Q04DX002 (ip), vehicle: saline 98 % of control | dose: 200.0 mg/kg/injection, schedule: Q04DX002 (ip), vehicle: saline 114 % of control

O=C1c2ccccc2C(=O)c2cc(S(=O)(=O)Cl)ccc21
inactive: dose: 100.0 mg/kg/injection, schedule: Q01DX009 (ip), vehicle: saline 99 % of control | dose: 200.0 mg/kg/injection, schedule: Q01DX009 (ip), vehicle: saline 92 % of control | dose: 400.0 mg/kg/injection, schedule: Q01DX009 (ip), vehicle: saline 86 % of control

O=C(CC(O)(C(F)(F)F)C(F)(F)F)c1ccco1
inactive: [1] 116 % of control | [2] 110 % of control | [3] 105 % of control | [4] 100 % of control

CC(C)NC(=O)CCCCN(C(=O)OCc1ccccc1)N(C)C(=O)OCc1ccccc1
inactive: dose: 50.0 mg/kg/injection, schedule: Q04DX003 (ip), vehicle: Klucel (hydroxypropylcellulose) (HPC) 100 % of control | dose: 100.0 mg/kg/injection, schedule: Q04DX003 (ip), vehicle: Klucel (hydroxypropylcellulose) (HPC) 91 % of control | dose: 200.0 mg/kg/injection, schedule: Q04DX003 (ip), vehicle: Klucel (hydroxypropylcellulose) (HPC) 106 % of control | dose: 400.0 mg/kg/injection, schedule: Q04DX003 (ip), vehicle: Klucel (hydroxypropylcellulose) (HPC) 95 % of control

O=C(O)C1CC2C(=O)CCCCCCC2C1O (centres undefined)
inactive: [5] 93 % of control | [2] 98 % of control | [6] 98 % of control | [7] 93 % of control | [8] 91 % of control | [9] 96 % of control

C#CC(C)(O)CCCCCC (centres undefined)
inactive: [2] 113 % of control | [7] 100 % of control

COc1cc([N+](=O)[O-])ccc1NC(=O)N(c1ccccc1)C(C)C
inactive: [5] 101 % of control and 112 % of control | [2] 98 % of control and 105 % of control | dose: 100.0 mg/kg/injection, schedule: Q04DX002 (ip), vehicle: saline with Tween-80 96 % of control | [3] 101 % of control | [6] 101 % of control and 104 % of control | [7] 94 % of control and 95 % of control | dose: 200.0 mg/kg/injection, schedule: Q04DX002 (ip), vehicle: saline with Tween-80 98 % of control | [4] 95 % of control | [8] 95 % of control and 97 % of control | [9] 94 % of control and 101 % of control | dose: 400.0 mg/kg/injection, schedule: Q04DX002 (ip), vehicle: saline with Tween-80 98 % of control | dose: 400.0 mg/kg/injection, schedule: Q04DX003 (ip), vehicle: saline with Tween-80 103 % of control

FC(F)(F)/C([S-])=C(/[S-])C(F)(F)F.[Ni].[c-]1[c-][c-][cH-][c-]1
inactive: dose: 9.5 mg/kg/injection, schedule: Q01DX001 (ip), vehicle: other 92 % of control | dose: 19.0 mg/kg/injection, schedule: Q01DX001 (ip), vehicle: other 93 % of control

CC1(C2CC(=O)N(OCc3ccccc3)C2=O)OCCO1 (centres undefined)
inactive: dose: 100.0 mg/kg/injection, schedule: Q04DX003 (ip), vehicle: other 89 % of control | dose: 200.0 mg/kg/injection, schedule: Q04DX003 (ip), vehicle: other 87 % of control | dose: 400.0 mg/kg/injection, schedule: Q04DX003 (ip), vehicle: other 88 % of control

CCCCCCCCCCCCCCCCN(C)C
inactive: [10] 94 % of control | [11] 95 % of control

N=C(N)SCc1ccccc1
inactive: dose: 6.25 mg/kg/injection, schedule: Q04DX003 (ip), vehicle: saline with Tween-80 114 % of control | dose: 12.5 mg/kg/injection, schedule: Q01DX009 (ip), vehicle: saline with Tween-80 94 % of control | dose: 12.5 mg/kg/injection, schedule: Q04DX003 (ip), vehicle: saline with Tween-80 100 % of control | dose: 25.0 mg/kg/injection, schedule: Q01DX001 (ip), vehicle: saline 93 % of control | dose: 25.0 mg/kg/injection, schedule: Q01DX009 (ip), vehicle: saline with Tween-80 96 % of control | [10] 112 % of control | dose: 50.0 mg/kg/injection, schedule: Q01DX001 (ip), vehicle: saline 100 % of control | [1] 93 % of control and 97 % of control | [11] 94 % of control and 97 % of control | dose: 100.0 mg/kg/injection, schedule: Q01DX001 (ip), vehicle: saline 96 % of control | [3] 100 % of control | [7] 86 % of control | [4] 95 % of control

Reference: PubChem BioAssay AID256 (DTP/NCI, 2004)
